Experimental data reported in ChEMBL document CHEMBL2074170, “Influence of different chemicals on MDR-1 P-glycoprotein expression and activity in the HK-2 proximal tubular cell line” (Toxicol Appl Pharmacol, 2002).

Experiments:
[1] = target: T1, ATP-dependent translocase ABCB1 (Homo sapiens, UniProt P08183); assay: TP_TRANSPORTER: Western blot, HK-2 cells; type: functional, cell-based
[2] = target: T1, ATP-dependent translocase ABCB1; assay: TP_TRANSPORTER: RT-PCR in HK-2 cell; type: functional, cell-based

T1 sequence (P08183 whole entry): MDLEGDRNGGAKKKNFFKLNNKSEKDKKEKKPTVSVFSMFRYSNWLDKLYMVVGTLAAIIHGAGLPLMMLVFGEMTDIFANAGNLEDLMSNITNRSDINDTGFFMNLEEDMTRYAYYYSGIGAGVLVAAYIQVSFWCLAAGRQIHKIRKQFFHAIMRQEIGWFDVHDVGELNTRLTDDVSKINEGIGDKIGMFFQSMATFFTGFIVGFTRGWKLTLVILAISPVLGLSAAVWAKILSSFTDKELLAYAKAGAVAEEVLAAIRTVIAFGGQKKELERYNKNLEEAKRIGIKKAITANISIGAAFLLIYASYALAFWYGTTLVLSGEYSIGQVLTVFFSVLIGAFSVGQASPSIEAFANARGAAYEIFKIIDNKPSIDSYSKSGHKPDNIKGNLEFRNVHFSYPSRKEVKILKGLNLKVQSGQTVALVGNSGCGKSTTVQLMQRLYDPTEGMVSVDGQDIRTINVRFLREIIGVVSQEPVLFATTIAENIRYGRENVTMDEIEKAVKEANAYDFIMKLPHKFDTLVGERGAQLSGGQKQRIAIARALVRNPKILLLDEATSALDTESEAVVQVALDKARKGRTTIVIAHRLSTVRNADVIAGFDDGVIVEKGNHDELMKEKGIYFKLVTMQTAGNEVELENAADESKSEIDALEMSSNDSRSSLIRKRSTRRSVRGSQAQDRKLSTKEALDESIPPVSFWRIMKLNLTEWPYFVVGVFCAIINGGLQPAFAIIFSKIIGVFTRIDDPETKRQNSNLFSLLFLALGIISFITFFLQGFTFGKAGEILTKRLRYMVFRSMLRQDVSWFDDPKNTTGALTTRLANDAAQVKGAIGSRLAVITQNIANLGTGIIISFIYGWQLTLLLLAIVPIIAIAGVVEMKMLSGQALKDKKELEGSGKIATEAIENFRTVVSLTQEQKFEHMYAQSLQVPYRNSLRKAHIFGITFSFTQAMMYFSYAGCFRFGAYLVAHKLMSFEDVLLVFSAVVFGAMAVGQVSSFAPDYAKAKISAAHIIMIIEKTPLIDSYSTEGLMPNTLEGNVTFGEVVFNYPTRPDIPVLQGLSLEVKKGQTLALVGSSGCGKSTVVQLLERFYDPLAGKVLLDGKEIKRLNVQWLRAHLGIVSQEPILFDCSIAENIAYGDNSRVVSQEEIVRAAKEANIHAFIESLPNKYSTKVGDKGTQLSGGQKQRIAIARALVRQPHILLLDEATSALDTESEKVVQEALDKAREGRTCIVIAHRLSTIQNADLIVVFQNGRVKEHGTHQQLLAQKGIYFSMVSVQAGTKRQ

SMILES	Activity [1]	Activity [2]
CC(=O)[C@H]1CC[C@H]2[C@@H]3CCC4=CC(=O)CC[C@]4(C)[C@H]3CC[C@]12C [PROGESTERONE]	is not an inducer [-]	is not an inducer [-]
CCCCCCCCCCCCCCCCOC[C@H](COP(=O)([O-])OCC[N+](C)(C)C)OC(C)=O [PLATELET ACTIVATING FACTOR]	inducer [+]	inducer [+]
C[C@@H]1C[C@H]2[C@@H]3CCC4=CC(=O)C=C[C@]4(C)[C@@]3(F)[C@@H](O)C[C@]2(C)[C@@]1(O)C(=O)CO [DEXAMETHASONE]	inducer [+]	inducer [+]
COc1ccc(CCN(C)CCCC(C#N)(c2ccc(OC)c(OC)c2)C(C)C)cc1OC (stereo unspecified)	is not an inducer [-]	is not an inducer [-]
COc1cc(Cc2cnc(N)nc2N)cc(OC)c1OC [TRIMETHOPRIM]	is not an inducer [-]	is not an inducer [-]
C[C@]12CCC(=O)C=C1CC[C@@H]1[C@@H]2[C@@H](O)C[C@]2(C=O)[C@@H](C(=O)CO)CC[C@@H]12 [ALDOSTERONE]	inducer [+]	
CC(=O)Nc1ccc2c(c1)Cc1ccccc1-2 [2-ACETYLAMINOFLUORENE]	inducer [Decrease]	inducer [Decrease]
Cc1ccc2cc3c(ccc4ccccc43)c3c2c1CC3 [3-METHYLCHOLANTHRENE]	inducer [Decrease]	
CN/C(=N/CCSCc1nc[nH]c1C)NC#N [CIMETIDINE]	is not an inducer [-]	is not an inducer [-]
